From patent US20210222177A1, “THERAPEUTIC AGENT FOR CARTILAGE-RELATED DISEASE” (ONO PHARMACEUTICAL CO., LTD., priority 2018, published 2021) come the findings set out here.

This series deals with Normal human knee joint chondrocytes. Nature of the series: Evaluation of chondrocyte differentiation promoting action (chondrocyte pellet culture). It is filed as cell-based. As to conditions: ASO final concentration 1000 nmol/L with calcium chloride 9 mmol/L, pellet-cultured for 10 days, versus Vehicle group. On the procedure: Normal human knee joint chondrocytes (Lonza Walkersville, Inc.) were thawed and cultured (culture conditions; 5% CO2, 37° C., 95% Air, the same conditions applies hereafter.) in a subculture medium (DMEM/F-12+glutaMAX, included in set of chondrocyte addition factors (Lonza Walkersville, Inc.)). Diluted subculture was performed after subconfluent, and two days after subculture, the culture was treated with antisense oligonucleotides against SIK2 and SIK3 (hereinafter SIK2 ASO; ACAACAACTGCACTTT (SEQ ID NO: 1) and SIK3 ASO; GGTTAGTGCCACGTTG (SEQ ID NO: 6)) in the presence of calcium chloride (9 mmol/L) (final concentration 1000 nmol/L). […] Chondrocyte pellets were imaged using Opera Phenix High Content Screening System (PerkinElmer), and pellet size (area of the pellet image) was calculated using an attached analysis software Harmony. The chondrocyte pellets after imaging were frozen in liquid nitrogen, crushed using AUTOMILL (Tokken, inc.), and then total RNA was extracted using RNeasy Plus Mini Kit (QIAGEN N.V.). cDNA was synthesized from a total RNA solution using High Capacity cDNA Reverse Transcription Kit, and expression level of each gene was measured by real-time polymerase chain reaction (PCR) method using TaqMan Fast Universal PCR Master Mix (2×) (Life Technologies Corporation) and Primer-Probe (COL2A1 assay ID: Hs01060345_m1, COL1A2 assay ID: Hs01028970_m1) of each gene. […]

As to “SIK2 ASO: SIK2 antisense oligonucleotide, ACAACAACTGCACTTT (SEQ ID NO: 1) (listed as DNA, chemistry not given here)”, the “cartilage differentiation markers COL2A1/COL1A2” value (real-time PCR, FIG. 2) is given as “increased”. Also, under “t-test, FIG. 1”, the “chondrocyte pellet size (area of the pellet image)” value is given as “significantly increased”.
